The text below walks through data of patent US11993821B2, “Co-crystallized sweeteners” (FIRMENICH SA, priority 2012, dated 2024).

The data set in a line: Dissolution measurements (Distek 2100B USP 2 dissolution system, UV/Vis probe at 324 nm). Particulars: 1 L deionized water, 200 rpm, amount for 20 ppm Compound I. Type of data set: physicochemical. As for the experimental part:
Dissolution Measurements: The performance of the sucrose/Compound I co-crystallized product was compared to that of the Compound I starting material and sucrose/Compound I powder mixtures under standard conditions using a Distek 2100B USP 2 dissolution system. Sufficient amounts of each sample were added in order to create 20 ppm solutions of Compound I. These amounts were 20 mg of pure Compound I, 200 mg of the 10% mixtures, 400 mg of the 5% mixtures and 2.00 g of the 1% mixtures in 1 L of deionized water. A stirring rate of 200 rpm was used.
The concentration of Compound I in solution was monitored continuously as a function of time using a UV/Vis spectrometer probe which measured absorbance at 324 nm.

For the compound `CCCNC(=O)C(C)(C)COc1cccc2c1C(N)=NS(=O)(=O)N2` [100% Compound I, 3-(4-amino-2,2-dioxide-1H-benzo[c][1,2,6]thiadiazin-5-yloxy)-2′,2′-dimethyl-N-propylpropanamide], the Concentration in solution (Compound I in solution at 0.083 min) is −0.5 ppm; the Concentration in solution (Compound I in solution at 2 min) is 0.4 ppm; the Concentration in solution (Compound I in solution at 5 min) is 1.4 ppm; the Concentration in solution (Compound I in solution at 10 min) is given as 3.5 ppm; the Concentration in solution (Compound I in solution at 25 min) is 8.3 ppm; the Concentration in solution (Compound I in solution at 50 min) is 14.5 ppm. This compound yielded a Concentration in solution (Compound I in solution at 100 min) of 20.9 ppm.
